Consider 1 compound from paper PMC5218480 (PLoS ONE, 2017).

The subject of the experiment is MV-4-11 cells. The experiment in a line: Gene expression microarray analysis (Affymetrix PrimeView) and GSEA. The experiment is classed as cell-based, human. Also on record: RFU PODN (11730768_x_at) / Fold change /veh PODN (11730768_x_at) / RFU LINC00158 (11744669_a_at) / Fold change /veh LINC00158 (11744669_a_at) / RFU DUSP10 (11751237_a_at) / Fold change /veh DUSP10 (11751237_a_at) / RFU ID3 (11757404_x_at) / Fold change /veh ID3 (11757404_x_at) / RFU PLEKHG5 (11737974_s_at) / Fold change /veh PLEKHG5 (11737974_s_at) / RFU LRRC4B (11730491_at) / Fold change /veh LRRC4B (11730491_at) / RFU GIMAP4 (11747438_a_at) / Fold change /veh GIMAP4 (11747438_a_at) / RFU KRT8 (11758183_x_at) / Fold change /veh KRT8 (11758183_x_at) / RFU CNN1 (11734310_a_at) / Fold change /veh CNN1 (11734310_a_at) / RFU VPS37D (11726825_at) / Fold change /veh VPS37D (11726825_at) / RFU C10orf10 (11716522_x_at) / Fold change /veh C10orf10 (11716522_x_at) / RFU KIR2DL2 /// KIR2DL4 /// KIR2DL5A /// KIR2DL5B /// KIR2DS1 /// KIR2DS2 /// KIR2DS3 /// KIR2DS4 /// KIR3DL3 /// KIR3DL3 /// KIR3DS1 (11738374_at) / Fold change /veh KIR2DL2 /// KIR2DL4 /// KIR2DL5A /// KIR2DL5B /// KIR2DS1 /// KIR2DS2 /// KIR2DS3 /// KIR2DS4 /// KIR3DL3 /// KIR3DL3 /// KIR3DS1 (11738374_at) / RFU C1QL1 (11718748_at) / Fold change /veh C1QL1 (11718748_at) / RFU TMPRSS4 (11747572_a_at) / Fold change /veh TMPRSS4 (11747572_a_at) / RFU HAMP (11756126_x_at) / Fold change /veh HAMP (11756126_x_at) / RFU RNFT2 (11725882_a_at) / Fold change /veh RNFT2 (11725882_a_at) / RFU NR4A2 (11747474_a_at) / Fold change /veh NR4A2 (11747474_a_at) / RFU ABCC12 (11746883_a_at) / Fold change /veh ABCC12 (11746883_a_at) / RFU TMEM136 (11760407_x_at) / Fold change /veh TMEM136 (11760407_x_at) / RFU CLDN22 /// WWC2 (11732394_at) / Fold change /veh CLDN22 /// WWC2 (11732394_at) / RFU HLA-DPB1 (11760878_x_at) / Fold change /veh HLA-DPB1 (11760878_x_at) / RFU SPINT1 (11716480_a_at) / Fold change /veh SPINT1 (11716480_a_at) / RFU GAP43 (11754022_s_at) / Fold change /veh GAP43 (11754022_s_at) / RFU A4GNT (11735810_at) / Fold change /veh A4GNT (11735810_at) / RFU PRB3 (11715151_x_at) / Fold change /veh PRB3 (11715151_x_at) / RFU TUBB4B (11761932_at) / Fold change /veh TUBB4B (11761932_at) / RFU CAPN14 (11732068_a_at) / Fold change /veh CAPN14 (11732068_a_at) / RFU TMCC2 (11721928_a_at) / Fold change /veh TMCC2 (11721928_a_at) / RFU IRGQ (11745062_a_at) / Fold change /veh IRGQ (11745062_a_at) / RFU FAM174B (11720279_a_at) / Fold change /veh FAM174B (11720279_a_at) / RFU TMPRSS4 (11748680_a_at) / Fold change /veh TMPRSS4 (11748680_a_at) / RFU FAM212B (11763350_a_at) / Fold change /veh FAM212B (11763350_a_at) / RFU PLEKHG5 (11743358_a_at) / Fold change /veh PLEKHG5 (11743358_a_at) / RFU ZSCAN30 (11745921_a_at) / Fold change /veh ZSCAN30 (11745921_a_at) / RFU CMKLR1 (11741424_a_at) / Fold change /veh CMKLR1 (11741424_a_at) / RFU LOC101060620 /// MAPK8IP1 (11723275_at) / Fold change /veh LOC101060620 /// MAPK8IP1 (11723275_at) / RFU SPTSSB (11747773_x_at) / Fold change /veh SPTSSB (11747773_x_at) / RFU PRSS12 (11739890_at) / Fold change /veh PRSS12 (11739890_at) / RFU BIN1 (11741810_x_at) / Fold change /veh BIN1 (11741810_x_at) / RFU WNT11 (11732464_a_at) / Fold change /veh WNT11 (11732464_a_at) / RFU C10orf10 (11716521_a_at) / Fold change /veh C10orf10 (11716521_a_at) / RFU C5orf56 (11738089_at) / Fold change /veh C5orf56 (11738089_at) / RFU CYB561 (11721691_x_at) / Fold change /veh CYB561 (11721691_x_at) / RFU ANKRD19P (11752326_a_at) / Fold change /veh ANKRD19P (11752326_a_at) / RFU OR2T12 /// OR2T33 /// OR2T8 (11738714_s_at) / Fold change /veh OR2T12 /// OR2T33 /// OR2T8 (11738714_s_at) / RFU VCAN (11748164_a_at) / Fold change /veh VCAN (11748164_a_at) / RFU JSRP1 (11732532_at) / Fold change /veh JSRP1 (11732532_at) / RFU KRTAP10-11 (11738290_x_at) / Fold change /veh KRTAP10-11 (11738290_x_at) / RFU MYO3A (11730013_a_at) / Fold change /veh MYO3A (11730013_a_at) / RFU EBF3 (11725865_a_at) / Fold change /veh EBF3 (11725865_a_at) / RFU CAMK2N1 (11719241_x_at) / Fold change /veh CAMK2N1 (11719241_x_at) / RFU C5orf56 (11738088_a_at) / Fold change /veh C5orf56 (11738088_a_at) / RFU OLFML3 (11715873_a_at) / Fold change /veh OLFML3 (11715873_a_at) / RFU LOC100653217 /// NTM (11731650_a_at) / Fold change /veh LOC100653217 /// NTM (11731650_a_at) / RFU MAPK11 (11762145_a_at) / Fold change /veh MAPK11 (11762145_a_at) / RFU FIZ1 (11724087_x_at) / Fold change /veh FIZ1 (11724087_x_at) / RFU OASL (11726364_x_at) / Fold change /veh OASL (11726364_x_at) / RFU SOX15 (11748057_x_at) / Fold change /veh SOX15 (11748057_x_at) / RFU CD79A (11719716_a_at) / Fold change /veh CD79A (11719716_a_at) / RFU HIST1H1D (11736915_at) / Fold change /veh HIST1H1D (11736915_at) / RFU CASKIN2 (11723855_a_at) / Fold change /veh CASKIN2 (11723855_a_at) / RFU LOC730098 (11760151_x_at) / Fold change /veh LOC730098 (11760151_x_at) / RFU OR4N2 (11742367_at) / Fold change /veh OR4N2 (11742367_at) / RFU PRRT2 (11749266_a_at) / Fold change /veh PRRT2 (11749266_a_at) / RFU SNX32 (11753110_a_at) / Fold change /veh SNX32 (11753110_a_at) / RFU CDHR5 (11726645_a_at) / Fold change /veh CDHR5 (11726645_a_at) / RFU RCAN1 (11760418_a_at) / Fold change /veh RCAN1 (11760418_a_at) / RFU FAM167A (11723789_a_at) / Fold change /veh FAM167A (11723789_a_at) / RFU FAM26E (11764081_at) / Fold change /veh FAM26E (11764081_at) / RFU ISYNA1 (11749810_s_at) / Fold change /veh ISYNA1 (11749810_s_at) / RFU ACY1 (11761880_at) / Fold change /veh ACY1 (11761880_at) / RFU 11764098_at / Fold change /veh 11764098_at / RFU SAMD14 (11745864_x_at) / Fold change /veh SAMD14 (11745864_x_at) / RFU NPB (11741838_a_at) / Fold change /veh NPB (11741838_a_at) / RFU TMPRSS6 (11731388_a_at) / Fold change /veh TMPRSS6 (11731388_a_at) / RFU KRTAP10-2 (11738614_at) / Fold change /veh KRTAP10-2 (11738614_at) / RFU ARHGAP8 /// PRR5-ARHGAP8 (11727945_x_at) / Fold change /veh ARHGAP8 /// PRR5-ARHGAP8 (11727945_x_at) / RFU KRTAP5-7 /// NADSYN1 (11734609_at) / Fold change /veh KRTAP5-7 /// NADSYN1 (11734609_at) / RFU RASL12 (11751679_a_at) / Fold change /veh RASL12 (11751679_a_at) / RFU CDKN2B (11736163_a_at) / Fold change /veh CDKN2B (11736163_a_at) / RFU PRF1 (11729649_at) / Fold change /veh PRF1 (11729649_at) / RFU, ZNF638 /// ZNF638-IT1 / Fold change vs veh, ZNF638 /// ZNF638-IT1 / RFU, PANK3 / Fold change vs veh, PANK3 / RFU, SH3YL1 / Fold change vs veh, SH3YL1 / RFU, ZEB2 / Fold change vs veh, ZEB2 / RFU, NRIP1 / Fold change vs veh, NRIP1 / RFU, PTTG1IP / Fold change vs veh, PTTG1IP / RFU, CAPN2 / Fold change vs veh, CAPN2 / RFU, MED14 / Fold change vs veh, MED14 / RFU, SNORA58 / Fold change vs veh, SNORA58 / RFU, C1orf63 / Fold change vs veh, C1orf63 / RFU, LRRFIP1 / Fold change vs veh, LRRFIP1 / RFU, NDUFAF7 / Fold change vs veh, NDUFAF7 / RFU, SLC12A2 / Fold change vs veh, SLC12A2 / RFU, IBTK / Fold change vs veh, IBTK / RFU, ESF1 / Fold change vs veh, ESF1 / Fold change vs veh, TMEM50B / RFU, TAOK1 / Fold change vs veh, TAOK1 / RFU, ACBD3 / Fold change vs veh, ACBD3 / RFU, TMA16 / Fold change vs veh, TMA16 / RFU, RWDD3 / Fold change vs veh, RWDD3 / RFU, BCAT1 / Fold change vs veh, BCAT1 / RFU, EDEM3 / Fold change vs veh, EDEM3 / RFU, TMEM33 / Fold change vs veh, TMEM33 / RFU, WDR75 / Fold change vs veh, WDR75 / RFU, AHCTF1 / Fold change vs veh, AHCTF1 / RFU, TFRC / Fold change vs veh, TFRC / RFU, ZDHHC17 / Fold change vs veh, ZDHHC17 / RFU, NOM1 / Fold change vs veh, NOM1 / RFU, ARL8B / Fold change vs veh, ARL8B / RFU, ZBTB11 / Fold change vs veh, ZBTB11 / RFU, TAMM41 / Fold change vs veh, TAMM41 / RFU, KIAA1704 /// LOC100996395 / Fold change vs veh, KIAA1704 /// LOC100996395 / RFU, ING1 / Fold change vs veh, ING1 / RFU, TRMT61B / Fold change vs veh, TRMT61B / RFU, FUBP3 / Fold change vs veh, FUBP3 / RFU, TP53 / Fold change vs veh, TP53 / RFU, TNKS2 / Fold change vs veh, TNKS2 / RFU, ZFP14 / Fold change vs veh, ZFP14 / RFU, ACTR2 / Fold change vs veh, ACTR2 / RFU, PPP3R1 / Fold change vs veh, PPP3R1 / RFU, PIK3R1 / Fold change vs veh, PIK3R1 / RFU, HNRNPA1 / Fold change vs veh, HNRNPA1 / RFU, RNF170 / Fold change vs veh, RNF170 / RFU, ZNF28 / Fold change vs veh, ZNF28 / RFU, RNGTT / Fold change vs veh, RNGTT / RFU, OGT / Fold change vs veh, OGT / RFU, BRD1 / Fold change vs veh, BRD1 / RFU, MARS / Fold change vs veh, MARS / RFU, ZNF655 / Fold change vs veh, ZNF655 / RFU, FAHD1 / Fold change vs veh, FAHD1 / RFU, BDP1 / Fold change vs veh, BDP1 / RFU, LRRCC1 / Fold change vs veh, LRRCC1 / RFU, ARID1A / Fold change vs veh, ARID1A / RFU, ZNF146 / Fold change vs veh, ZNF146 / RFU, ZNF330 / Fold change vs veh, ZNF330 / RFU, GPN3 / Fold change vs veh, GPN3 / RFU, C9orf123 / Fold change vs veh, C9orf123 / RFU, N4BP2L2 / Fold change vs veh, N4BP2L2 / RFU, ARFIP1 / Fold change vs veh, ARFIP1 / RFU, FAM179B / Fold change vs veh, FAM179B / RFU, BCL10 / Fold change vs veh, BCL10 / RFU, UHRF1BP1L / Fold change vs veh, UHRF1BP1L / RFU, BET1 / Fold change vs veh, BET1 / RFU, CNOT2 / Fold change vs veh, CNOT2 / RFU, ZNF268 / Fold change vs veh, ZNF268 / Fold change vs veh, ZNF507 / RFU, DGCR2 / Fold change vs veh, DGCR2 / RFU, WDSUB1 / Fold change vs veh, WDSUB1 / Fold change vs veh, HSP90B1 /// MIR3652 / RFU, ADSS / Fold change vs veh, ADSS / RFU, GK / Fold change vs veh, GK / RFU, ZNF148 / Fold change vs veh, ZNF148 / RFU, TAF9 / Fold change vs veh, TAF9 / RFU, SLC1A5 / Fold change vs veh, SLC1A5 / RFU, SLMO2 / Fold change vs veh, SLMO2 / RFU, ABCC4 / Fold change vs veh, ABCC4 / RFU, LOC101060439 /// RAP1B / Fold change vs veh, LOC101060439 /// RAP1B / RFU, RFX7 / Fold change vs veh, RFX7 / RFU, GTPBP10 / Fold change vs veh, GTPBP10 / RFU, CNEP1R1 / Fold change vs veh, CNEP1R1 / RFU, BIVM-ERCC5 /// ERCC5 / Fold change vs veh, BIVM-ERCC5 /// ERCC5 / RFU, ILF3 / Fold change vs veh, ILF3 / RFU 11762660_at / Fold change /veh 11762660_at / RFU VCAN (11757783_s_at) / Fold change /veh VCAN (11757783_s_at) / RFU DDX43 (11728927_at) / Fold change /veh DDX43 (11728927_at) / RFU KRT8 (11758188_x_at) / Fold change /veh KRT8 (11758188_x_at) / RFU NKD1 (11759106_at) / Fold change /veh NKD1 (11759106_at) / RFU SRD5A1 (11742802_a_at) / Fold change /veh SRD5A1 (11742802_a_at) / RFU TPSAB1 /// TPSB2 (11721975_s_at) / Fold change /veh TPSAB1 /// TPSB2 (11721975_s_at) / RFU GSTM3 (11746129_a_at) / Fold change /veh GSTM3 (11746129_a_at) / RFU IL23R (11737362_x_at) / Fold change /veh IL23R (11737362_x_at) / RFU TMEM51 (11727254_a_at) / Fold change /veh TMEM51 (11727254_a_at) / RFU PIWIL2 (11732686_x_at) / Fold change /veh PIWIL2 (11732686_x_at) / RFU ORM1 (11744905_x_at) / Fold change /veh ORM1 (11744905_x_at) / RFU CCDC152 (11743942_at) / Fold change /veh CCDC152 (11743942_at) / RFU ECM1 (11717891_a_at) / Fold change /veh ECM1 (11717891_a_at) / RFU IL23R (11748794_a_at) / Fold change /veh IL23R (11748794_a_at) / RFU TNFAIP8L3 (11732012_x_at) / Fold change /veh TNFAIP8L3 (11732012_x_at) / RFU MBOAT4 (11741988_at) / Fold change /veh MBOAT4 (11741988_at) / RFU 11764193_at / Fold change /veh 11764193_at / RFU TMEM53 (11763286_at) / Fold change /veh TMEM53 (11763286_at) / RFU MAGEB2 (11727129_at) / Fold change /veh MAGEB2 (11727129_at) / RFU TMEM200A (11744735_a_at) / Fold change /veh TMEM200A (11744735_a_at) / RFU CCDC152 (11751479_a_at) / Fold change /veh CCDC152 (11751479_a_at) / RFU FAM211A (11726209_a_at) / Fold change /veh FAM211A (11726209_a_at) / RFU RGS16 (11746705_a_at) / Fold change /veh RGS16 (11746705_a_at) / RFU VCAN (11755009_s_at) / Fold change /veh VCAN (11755009_s_at) / RFU RHOB (11743442_s_at) / Fold change /veh RHOB (11743442_s_at) / RFU RGS16 (11720943_a_at) / Fold change /veh RGS16 (11720943_a_at) / RFU RGS16 (11720944_at) / Fold change /veh RGS16 (11720944_at) / RFU, VPS4B / Fold change vs veh, VPS4B / RFU, CREB1 / Fold change vs veh, CREB1 / RFU, DNAJC13 / Fold change vs veh, DNAJC13 / RFU, GNAQ / Fold change vs veh, GNAQ / RFU, CDK5R1 / Fold change vs veh, CDK5R1 / RFU, ZRANB3 / Fold change vs veh, ZRANB3 / RFU, CUL4A / Fold change vs veh, CUL4A / RFU, CCNY / Fold change vs veh, CCNY / RFU, UFL1 / Fold change vs veh, UFL1 / RFU, COG3 / Fold change vs veh, COG3 / RFU, DIAPH2 / Fold change vs veh, DIAPH2 / RFU, SKA2 / Fold change vs veh, SKA2 / RFU, AFF3 / Fold change vs veh, AFF3 / RFU, LMF1 / Fold change vs veh, LMF1 / RFU, IPO11 / Fold change vs veh, IPO11 / RFU, DFFB / Fold change vs veh, DFFB / RFU, FOXP1 / Fold change vs veh, FOXP1 / RFU, CARD8 / Fold change vs veh, CARD8 / RFU, STRN3 / Fold change vs veh, STRN3 / RFU, ADK / Fold change vs veh, ADK / RFU, RASSF2 / Fold change vs veh, RASSF2 / RFU, WIPF1 / Fold change vs veh, WIPF1 / RFU, LARP1B / Fold change vs veh, LARP1B / RFU, RASA1 / Fold change vs veh, RASA1 / RFU, RB1 / Fold change vs veh, RB1 / RFU, PPFIA1 / Fold change vs veh, PPFIA1 / RFU, MAT2A / Fold change vs veh, MAT2A / RFU, CCT5 / Fold change vs veh, CCT5 / RFU, WDR92 / Fold change vs veh, WDR92 / RFU, CUX1 / Fold change vs veh, CUX1 / RFU, TTC7A / Fold change vs veh, TTC7A / RFU, TMEM135 / Fold change vs veh, TMEM135 / RFU, DEPTOR / Fold change vs veh, DEPTOR / RFU, CPM / Fold change vs veh, CPM / RFU, DNAJB6 / Fold change vs veh, DNAJB6 / RFU, CACNA2D3 / Fold change vs veh, CACNA2D3 / RFU, DTX4 / Fold change vs veh, DTX4 / RFU, TFCP2 / Fold change vs veh, TFCP2 / RFU, GMCL1 /// GMCL1P1 / Fold change vs veh, GMCL1 /// GMCL1P1 / RFU, AEBP2 / Fold change vs veh, AEBP2 / RFU, SNHG1 /// SNORD22 /// SNORD25 /// SNORD26 /// SNORD27 /// SNORD28 /// SNORD29 /// SNORD31 / Fold change vs veh, SNHG1 /// SNORD22 /// SNORD25 /// SNORD26 /// SNORD27 /// SNORD28 /// SNORD29 /// SNORD31 / Fold change (Aza/veh), C12orf56 (ProbeSet 11735607_a_at) / Fold change (ACY-1035/veh), C12orf56 (ProbeSet 11735607_a_at) / Fold change (Aza/veh), FGFR1OP (ProbeSet 11751329_s_at) / Fold change (ACY-1035/veh), FGFR1OP (ProbeSet 11751329_s_at) / Fold change (Aza/veh), VPS36 (ProbeSet 11739960_a_at) / Fold change (ACY-1035/veh), VPS36 (ProbeSet 11739960_a_at) / RFU SYPL1 (11715823_x_at) / Fold change /veh SYPL1 (11715823_x_at) / RFU IGFBP7 (11715501_s_at) / Fold change /veh IGFBP7 (11715501_s_at) / RFU REEP3 (11722064_at) / Fold change /veh REEP3 (11722064_at) / RFU IGLL1 (11728026_x_at) / Fold change /veh IGLL1 (11728026_x_at): dose or concentration left out as unconfirmed. Conditions: MV-4-11 cells, 48 hours.

As to `Nc1ccc(-c2cccs2)cc1NC(=O)c1ccc2c(c1)cc(C1CC1)n2CCN1CCOCC1` [ACY-1035], the “Fold change /veh PRRT2 (11749266_a_at)” value was 1.00.
